Assay results taken from ChEMBL document CHEMBL4229379, “Synthesis and structure-activity relationship of novel bisindole amidines active against MDR Gram-positive and Gram-negative bacteria” (Eur J Med Chem, 2018).
In brackets after ≈: the same amount, converted by molar mass.

What was measured:
[1] = system: Staphylococcus epidermidis; assay: Antibacterial activity against methicillin-sensitive Staphylococcus epidermidis ATCC 12228 after 18 hrs by CLSI broth microdilution method; format: functional; details: ATCC 12228, 18 h
[2] = system: Staphylococcus epidermidis; assay: Antibacterial activity against methicillin-resistant Staphylococcus epidermidis 12-8 after 18 hrs by CLSI broth microdilution method; format: functional; details: 12-8, 18 h
Staphylococcus aureus [3] = assay: Antibacterial activity against methicillin-sensitive Staphylococcus aureus ATCC 29213 after 18 hrs by CLSI broth microdilution method; format: functional; details: ATCC 29213, 18 h
Staphylococcus aureus [4] = assay: Antibacterial activity against methicillin-resistant Staphylococcus aureus 12-33 after 18 hrs by CLSI broth microdilution method; format: functional; details: 12-33, 18 h
Enterococcus faecalis [5] = assay: Antibacterial activity against vancomycin-sensitive Enterococcus faecalis ATCC 29212 after 18 hrs by CLSI broth microdilution method; format: functional; details: ATCC 29212, 18 h
Enterococcus faecalis [6] = assay: Antibacterial activity against vancomycin-resistant Enterococcus faecalis 09-9 after 18 hrs by CLSI broth microdilution method; format: functional; details: 09-9, 18 h
Enterococcus faecium [7] = assay: Antibacterial activity against vancomycin-resistant Enterococcus faecium ATCC 700221 after 18 hrs by CLSI broth microdilution method; format: functional; details: ATCC 700221, 18 h
Enterococcus faecium [8] = assay: Antibacterial activity against vancomycin-sensitive Enterococcus faecium 12-3 after 18 hrs by CLSI broth microdilution method; format: functional; details: 12-3, 18 h
Escherichia coli [9] = assay: Antibacterial activity against extended-spectrum beta-lactamase deficient Escherichia coli ATCC 25922 after 18 hrs by CLSI broth microdilution method; format: functional; details: ATCC 25922, 18 h
Escherichia coli [10] = assay: Antibacterial activity against extended-spectrum beta-lactamase harboring Escherichia coli 12-15 after 18 hrs by CLSI broth microdilution method; format: functional; details: 12-15, 18 h
Klebsiella pneumoniae [11] = assay: Antibacterial activity against extended-spectrum beta-lactamase harboring Klebsiella pneumoniae ATCC 700603 after 18 hrs by CLSI broth microdilution method; format: functional; details: Klebsiella pneumoniae, 700603, 18 h
Klebsiella pneumoniae [12] = assay: Antibacterial activity against new delhi metallo-beta-lactamase-1 harboring Klebsiella pneumoniae ATCC BAA-2146 after 18 hrs by CLSI broth microdilution method; format: functional; details: ATCC BAA-2146, 18 h
Klebsiella pneumoniae [13] = assay: Antibacterial activity against extended-spectrum beta-lactamase harboring Klebsiella pneumoniae 12-8 after 18 hrs by CLSI broth microdilution method; format: functional; details: 12-8, 18 h
Pseudomonas aeruginosa [14] = assay: Antibacterial activity against Pseudomonas aeruginosa ATCC 27853 after 18 hrs by CLSI broth microdilution method; format: functional; details: ATCC 27853, 18 h
[15] = system: Acinetobacter calcoaceticus; assay: Antibacterial activity against Acinetobacter calcoaceticus ATCC 19606 after 18 hrs by CLSI broth microdilution method; format: functional; details: ATCC 19606, 18 h
Enterobacter cloacae = assay: Antibacterial activity against Enterobacter cloacae ATCC 43560 after 18 hrs by CLSI broth microdilution method; format: functional; details: ATCC 43560, 18 h
Proteus mirabilis = assay: Antibacterial activity against Proteus mirabilis 12-6 after 18 hrs by CLSI broth microdilution method; format: functional; details: 12-6, 18 h
[16] = Cytotoxicity against HEK293T cells assessed as reduction in cell viability after 48 hrs by MTS assay; format: cell-based, HEK-293T; details: human
[17] = system: Staphylococcus epidermidis; assay: Antibacterial activity against methicillin-sensitive Staphylococcus epidermidis 12-6 after 18 hrs by CLSI broth microdilution method; format: functional; details: 12-6, 18 h
Staphylococcus aureus [18] = assay: Antibacterial activity against methicillin-resistant Staphylococcus aureus ATCC 33591 after 18 hrs by CLSI broth microdilution method; format: functional; details: ATCC 33591, 18 h
Staphylococcus aureus [19] = assay: Antibacterial activity against methicillin-sensitive Staphylococcus aureus 15 after 18 hrs by CLSI broth microdilution method; format: functional; details: Staphylococcus aureus, 15, 18 h
Staphylococcus aureus [20] = assay: Antibacterial activity against methicillin-sensitive Staphylococcus aureus 12-28 after 18 hrs by CLSI broth microdilution method; format: functional; details: 12-28, 18 h
Enterococcus faecalis [21] = assay: Antibacterial activity against vancomycin-resistant Enterococcus faecalis ATCC 51299 after 18 hrs by CLSI broth microdilution method; format: functional; details: ATCC 51299, 18 h
Enterococcus faecalis [22] = assay: Antibacterial activity against vancomycin-sensitive Enterococcus faecalis 12-5 after 18 hrs by CLSI broth microdilution method; format: functional; details: 12-5, 18 h
Enterococcus faecium [23] = assay: Antibacterial activity against vancomycin-resistant Enterococcus faecium 12-1 after 18 hrs by CLSI broth microdilution method; format: functional; details: 12-1, 18 h
Escherichia coli [24] = assay: Antibacterial activity against extended-spectrum beta-lactamase deficient Escherichia coli 1515 after 18 hrs by CLSI broth microdilution method; format: functional; details: Escherichia coli, 1515, 18 h
Escherichia coli [25] = assay: Antibacterial activity against extended-spectrum beta-lactamase deficient Escherichia coli 12-14 after 18 hrs by CLSI broth microdilution method; format: functional; details: 12-14, 18 h
Klebsiella pneumoniae [26] = assay: Antibacterial activity against extended-spectrum beta-lactamase deficient Klebsiella pneumoniae 7 after 18 hrs by CLSI broth microdilution method; format: functional; details: Klebsiella pneumoniae, 7, 18 h
Klebsiella pneumoniae [27] = assay: Antibacterial activity against extended-spectrum beta-lactamase deficient Klebsiella pneumoniae 12-4 after 18 hrs by CLSI broth microdilution method; format: functional; details: 12-4, 18 h
Pseudomonas aeruginosa [28] = assay: Antibacterial activity against Pseudomonas aeruginosa PAO1 after 18 hrs by CLSI broth microdilution method; format: functional; details: PAO1, 18 h
Pseudomonas aeruginosa [29] = assay: Antibacterial activity against Pseudomonas aeruginosa 12-16 after 18 hrs by CLSI broth microdilution method; format: functional; details: 12-16, 18 h
Klebsiella aerogenes = assay: Antibacterial activity against Enterobacter aerogenes ATCC 13048 after 18 hrs by CLSI broth microdilution method; format: functional; details: ATCC 13048, 18 h
Serratia marcescens = assay: Antibacterial activity against Serratia marcescens ATCC 21074 after 18 hrs by CLSI broth microdilution method; format: functional; details: ATCC 21074, 18 h
Providencia rettgeri = assay: Antibacterial activity against Providencia rettgeri ATCC 31052 after 18 hrs by CLSI broth microdilution method; format: functional; details: ATCC 31052, 18 h
Proteus vulgaris = assay: Antibacterial activity against Proteus vulgaris ATCC 29905 after 18 hrs by CLSI broth microdilution method; format: functional; details: ATCC 29905, 18 h
[30] = system: Stenotrophomonas maltophilia; assay: Antibacterial activity against Stenotrophomonas maltophilia ATCC 13636 after 18 hrs by CLSI broth microdilution method; format: functional; details: ATCC 13636, 18 h
Citrobacter freundii = assay: Antibacterial activity against Citrobacter freundii ATCC 43864 after 18 hrs by CLSI broth microdilution method; format: functional; details: ATCC 43864, 18 h

Compound `CCC(C)NC(=N)c1ccc2cc(-c3ccc(-c4cc5ccc(C(=N)NC(C)CC)cc5[nH]4)cc3)[nH]c2c1` (configuration not stated) has an MIC [1] of 0.25 µg/mL (≈ 0.495 µM), an MIC [2] of 0.5 µg/mL (≈ 0.991 µM) and an MIC (Staphylococcus aureus [3]) of 0.5 µg/mL (≈ 0.991 µM). It also gave an MIC (Staphylococcus aureus [4]) of 0.5 µg/mL (≈ 0.991 µM), an MIC (Enterococcus faecalis [5]) of 1 µg/mL (≈ 1.98 µM) and an MIC (Enterococcus faecalis [6]) of 2 µg/mL (≈ 3.96 µM). It also gave an MIC (Enterococcus faecium [7]) of 2 µg/mL (≈ 3.96 µM), an MIC (Enterococcus faecium [8]) of 1 µg/mL (≈ 1.98 µM) and an MIC (Escherichia coli [9]) of 4 µg/mL (≈ 7.93 µM). For the same compound, the MIC (Escherichia coli [10]) was 4 µg/mL (≈ 7.93 µM), the MIC (Klebsiella pneumoniae [11]) was 8 µg/mL (≈ 15.9 µM) and the MIC (Klebsiella pneumoniae [12]) was 4 µg/mL (≈ 7.93 µM). For the same compound, the MIC (Klebsiella pneumoniae [13]) was 4 µg/mL (≈ 7.93 µM), the MIC (Pseudomonas aeruginosa [14]) was 4 µg/mL (≈ 7.93 µM) and the MIC [15] was 16 µg/mL (≈ 31.7 µM). It also gave an MIC (Enterobacter cloacae) of 4 µg/mL (≈ 7.93 µM), an MIC (Proteus mirabilis) of 16 µg/mL (≈ 31.7 µM) and a CC50 at 48 h [16] of 15.4 µg/mL (≈ 30.6 µM). The MIC [17] was 1 µg/mL (≈ 1.98 µM), the MIC (Staphylococcus aureus [18]) was 0.5 µg/mL (≈ 0.991 µM) and the MIC (Staphylococcus aureus [19]) was 0.5 µg/mL (≈ 0.991 µM). It also gave an MIC (Staphylococcus aureus [20]) of 0.5 µg/mL (≈ 0.991 µM), an MIC (Enterococcus faecalis [21]) of 2 µg/mL (≈ 3.96 µM) and an MIC (Enterococcus faecalis [22]) of 2 µg/mL (≈ 3.96 µM). The MIC (Enterococcus faecium [23]) was 2 µg/mL (≈ 3.96 µM), the MIC (Escherichia coli [24]) was 4 µg/mL (≈ 7.93 µM) and the MIC (Escherichia coli [25]) was 4 µg/mL (≈ 7.93 µM). For the same compound, the MIC (Klebsiella pneumoniae [26]) was 4 µg/mL (≈ 7.93 µM), the MIC (Klebsiella pneumoniae [27]) was 4 µg/mL (≈ 7.93 µM) and the MIC (Pseudomonas aeruginosa [28]) was 16 µg/mL (≈ 31.7 µM). It also gave an MIC (Pseudomonas aeruginosa [29]) of 16 µg/mL (≈ 31.7 µM), an MIC (Klebsiella aerogenes) of 4 µg/mL (≈ 7.93 µM) and an MIC (Serratia marcescens) of 8 µg/mL (≈ 15.9 µM). The MIC (Providencia rettgeri) was 4 µg/mL (≈ 7.93 µM), the MIC (Proteus vulgaris) was 4 µg/mL (≈ 7.93 µM) and the MIC [30] was 4 µg/mL (≈ 7.93 µM). For the same compound, the MIC (Citrobacter freundii) was 4 µg/mL (≈ 7.93 µM).
